Results published in patent publication EP0260127A2, “Xanthine derivatives, their preparation and pharmaceutical compositions containing them” (BEECHAM - WUELFING GmbH & Co. KG, priority 1986, dated 1988).
Marks after values point to notes of the source that are not given here.

Experiments:
[1] = tested on: rat ischaemic gastrocnemius muscle; assay: Effect on oxygen tension (pO2) of rat ischaemic gastrocnemius muscle; format: in vivo; conditions: ischaemic hindlimb, femoral artery ligated 2-4 days previously
[2] = tested on: Mongolian gerbils; assay: Gerbil ischaemic deficit passive avoidance test (recall latency following transient forebrain ischaemia); format: in vivo; conditions: 3mg/kg p.o., seven administrations; gerbils after 5min bilateral carotid artery ligation; ischaemic controls 14, sham-ligated controls 33
Protocol: 2. The Gerbil Ischaemic Deficit Passive Avoidance Test.
Mongolian gerbils were conditioned to avoid entering a dark compartment by means of a footshock (maximally 50V, 2s duration) received when entering from the light section of a two compartment box. Recollection of the footshock was examined 24h later by replacing the gerbils in the two compartment box and measuring the recall latency, the time taken to re-enter the dark compartment.
Effect of test compound on recall latency in the gerbil following transient forebrain ischaemia.
A learning or memory deficit was induced in the gerbils by a transient (5min) bilateral carotid artery ligation, performed 24h prior to conditioning, under light hexobarbital anaesthesia.
Compounds, being examined for an effect on learning or memory in gerbils which had undergone carotid occlusion, were administered seven times during the experiment. The initial administration was during the period of forebrain ischaemia, the third and seventh administrations were 10min prior to conditioning and recall testing, respectively, and the remainder were given at intermediate time points.
A long recall latency indicates good information acquisition or retrival.

[3] = molecular target: cyclic AMP phosphodiesterase; assay: Inhibition of cyclic AMP phosphodiesterase (Dixon plot); format: biochemical; conditions: homogenates of rat skeletal muscle; 0.31 µM cyclic AMP as substrate; estimated from Dixon plot; read-out: Apparent Ki value
Protocol: 4. Inhibition of cyclic AMP phosphodiesterase.
The activity of cyclic AMP phosphodiesterase in homogenates of rat skeletal muscle was measured in the presence of various concentrations of compounds of formula (I) using 0.31 µM cyclic AMP as substrate. The reciprocal of the reaction rate was plotted on the y axis against the concentration of each compound on the x axis (Dixon plot). The apparent Ki value was estimated by extrapolating the steeper linear portion of the Dixon plot to the x axis and obtaining the negative intercept on the x axis.

Compound | Ki [3] [µM] | CHANGE in pO2 (Torr) (mean ± SEM) ([1]; 5.0 mg/kg i.v., n 4) | Percentage of animals with recall latencies >60s [2] | CHANGE in pO2 (Torr) (mean ± SEM) ([1]; 1.0 mg/kg i.v., n 8)
CCCCn1c(=O)n(CCC(C)O)c(=O)c2c1ncn2CC(C)=O (centres unmarked) [Example E7, 1-(3-Hydroxybutyl)-3-n-butyl-7-(2-oxopropyl)xanthine] | 13 |  |  | 
CCCCn1c(=O)n(CCC(C)=O)c(=O)c2c1ncn2CC(C)O (centres unmarked) [Example E8, 1-(3-Oxobutyl)-3-n-butyl-7-(2-hydroxypropyl) xanthine] | 160 |  |  | 
CCCCn1c(=O)c2c(ncn2CC(C)=O)n(CCC(C)O)c1=O (centres unmarked) [Example E9, 1-n-Butyl-3-(3-hydroxybutyl)-7-(2-oxopropyl)xanthine] | 13 |  |  | 

Now from value to compound, other results behind:

Ki [3] [µM] | Compound | CHANGE in pO2 (Torr) (mean ± SEM) ([1]; 5.0 mg/kg i.v., n 4) | Percentage of animals with recall latencies >60s [2] | CHANGE in pO2 (Torr) (mean ± SEM) ([1]; 1.0 mg/kg i.v., n 8)
128 | CCCCn1c(=O)n(CCC(C)O)c(=O)c2c1ncn2CC(C)O (centres unmarked) [Example E5, 1-(3-Hydroxybutyl)-3-n-butyl-7-(2-hydroxypropyl) xanthine] | 2.3 ± 1.6 | 32* | 
94 | CCCCn1c(=O)c2c(ncn2CC(C)O)n(CCC(C)O)c1=O (centres unmarked) [Example E6, 1-n-Butyl-3-(3-hydroxybutyl)-7-(2-hydroxypropyl)xanthine] |  | 33* | 2.2 ± 0.6
81 | CC(=O)Cn1cnc2c1c(=O)n(CCC(C)O)c(=O)n2CCC(C)O (centres unmarked) [Example E11, 1,3-bis-(3-Hydroxybutyl)-7-(2-oxopropyl)xanthine] |  |  | 
815 | CC(O)CCn1c(=O)c2c(ncn2CC(C)O)n(CCC(C)O)c1=O (centres unmarked) [Example E14, 1,3-bis-(3-Hydroxybutyl)-7-(2-hydroxypropyl)xanthine] |  |  | 
